The values below come from US20080200454A1, “CARBON-LINKED TETRAHYDRO-PYRAZOLO-PYRIDINE MODULATORS OF CATHEPSIN S” (priority 2007, published 2008).

As usually defined, the IC50 is the concentration at which inhibition is half-maximal.

The first assay deals with Recombinant human cathepsin S (CatS) (Homo sapiens, UniProt P25774). Briefly: Recombinant human cathepsin S (CatS) inhibition assay, fluorogenic substrate Z-Valine-Valine-Arginine-AMC.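 Also: Baculovirus-expressed CatS in pH 5.0 sodium acetate buffer with DTT and NaCl, fluorescence read each minute over 20 min, inhibition derived from rate slope.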
Sequence of Recombinant human cathepsin S (CatS) (P25774 115-331): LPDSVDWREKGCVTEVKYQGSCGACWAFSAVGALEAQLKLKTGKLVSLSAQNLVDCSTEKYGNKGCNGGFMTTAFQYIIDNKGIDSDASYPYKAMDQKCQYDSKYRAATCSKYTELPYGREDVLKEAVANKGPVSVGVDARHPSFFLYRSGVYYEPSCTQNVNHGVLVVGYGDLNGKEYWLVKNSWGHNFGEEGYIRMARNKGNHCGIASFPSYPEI
Settings: not given
For `CS(=O)(=O)N1CCc2c(c(-c3ccc(Cl)c(C#CCO)c3)nn2CCCN2CCC(N3CCCC3=O)CC2)C1` [Example 310, 1-[1-(3-{3-[4-Chloro-3-(3-hydroxyprop-1-yn-1-yl)phenyl]-5-(methylsulfonyl)-4,5,6,7-tetrahydro-1H-pyrazolo[4,3-c]pyridin-1-yl}propyl)piperidin-4-yl]pyrrolidin-2-one], the IC50 turned out to be 2120 nM.

On to `CS(=O)(=O)N1CCc2c(c(-c3ccc(Cl)c(CCCCO)c3)nn2CCCN2CCC(N3CCCC3=O)CC2)C1` [Example 311, 1-[1-(3-{3-[4-Chloro-3-(4-hydroxybutyl)phenyl]-5-(methylsulfonyl)-4,5,6,7-tetrahydro-1H-pyrazolo[4,3-c]pyridin-1-yl}propyl)piperidin-4-yl]pyrrolidin-2-one], for which the IC50 turned out to be 1350 nM.

Consider `CN(C)CCCCc1cc(-c2nn(CCCN3CCC(N4CCCC4=O)CC3)c3c2CN(S(C)(=O)=O)CC3)ccc1Cl` [Example 312, 1-(1-{3-[3-{4-Chloro-3-[4-(dimethylamino)butyl]phenyl}-5-(methylsulfonyl)-4,5,6,7-tetrahydro-1H-pyrazolo[4,3-c]pyridin-1-yl]propyl}piperidin-4-yl)pyrrolidin-2-one], for which the IC50 was determined as 5620 nM.

In the case of `CS(=O)(=O)N1CCc2c(c(-c3ccc(Cl)c(CCCO)c3)nn2CCCN2CCC(N3CCCC3=O)CC2)C1` [Example 313, 1-[1-(3-{3-[4-Chloro-3-(3-hydroxypropyl)phenyl]-5-(methylsulfonyl)-4,5,6,7-tetrahydro-1H-pyrazolo[4,3-c]pyridin-1-yl}propyl)piperidin-4-yl]pyrrolidin-2-one], the half-inhibitory concentration (IC50) came to 1960 nM.

Regarding `CN(C)CCCc1cc(-c2nn(CCCN3CCC(N4CCCC4=O)CC3)c3c2CN(S(C)(=O)=O)CC3)ccc1Cl` [Example 314, 1-(1-{3-[3-{4-Chloro-3-[3-(dimethylamino)propyl]phenyl}-5-(methylsulfonyl)-4,5,6,7-tetrahydro-1H-pyrazolo[4,3-c]pyridin-1-yl]propyl}piperidin-4-yl)pyrrolidin-2-one], the IC50 stood at 3660 nM.

Regarding `CNCc1ccc(C#Cc2cc(-c3nn(CCCN4CCOCC4)c4c3CN(S(C)(=O)=O)CC4)ccc2Cl)cc1` [Example 315, 1-[4-({2-Chloro-5-[5-(methylsulfonyl)-1-(3-morpholin-4-ylpropyl)-4,5,6,7-tetrahydro-1H-pyrazolo[4,3-c]pyridin-3-yl]phenyl}ethynyl)phenyl]-N-methylmethanamine], the IC50 came out at 1360 nM.

For the compound `CS(=O)(=O)N1CCc2c(c(-c3ccc(Cl)c(C#Cc4ccc(CNCCc5ccccc5)cc4)c3)nn2CCCN2CCOCC2)C1` [Example 316, N-{[4-({2-Chloro-5-[5-(methylsulfonyl)-1-(3-morpholin-4-ylpropyl)-4,5,6,7-tetrahydro-1H-pyrazolo[4,3-c]pyridin-3-yl]phenyl}ethynyl)phenyl]methyl}-2-phenylethanamine], the IC50 came out at 580 nM.

Regarding `CS(=O)(=O)N1CCc2c(c(-c3ccc(Cl)c(C#Cc4ccc(CNCc5ccc(Cl)cc5)cc4)c3)nn2CC(O)CN2CCOCC2)C1` (centres unmarked) [Example 332, 1-[3-(4-Chloro-3-{[4-({[(4-chlorophenyl)methyl]amino}methyl)phenyl]ethynyl}phenyl)-5-(methylsulfonyl)-4,5,6,7-tetrahydro-1H-pyrazolo[4,3-c]pyridin-1-yl]-3-morpholin-4-ylpropan-2-ol], the IC50 was found to be 190 nM.

Staying with this assay, now noted: CatS IC50.
As to `CCN(CC)Cc1ccc(C#Cc2cc(-c3nn(CCCN4CCOCC4)c4c3CN(S(C)(=O)=O)CC4)ccc2Cl)cc1` [Example 317, N-{[4-({2-Chloro-5-[5-(methylsulfonyl)-1-(3-morpholin-4-ylpropyl)-4,5,6,7-tetrahydro-1H-pyrazolo[4,3-c]pyridin-3-yl]phenyl}ethynyl)phenyl]methyl}-N-ethylethanamine], the IC50 turned out to be 2710 nM.

On to `CC(C)CNCc1ccc(C#Cc2cc(-c3nn(CCCN4CCOCC4)c4c3CN(S(C)(=O)=O)CC4)ccc2Cl)cc1` [Example 318, N-{[4-({2-Chloro-5-[5-(methylsulfonyl)-1-(3-morpholin-4-ylpropyl)-4,5,6,7-tetrahydro-1H-pyrazolo[4,3-c]pyridin-3-yl]phenyl}ethynyl)phenyl]methyl}-2-methylpropan-1-amine], for which the IC50 turned out to be 1150 nM.

For `CS(=O)(=O)N1CCc2c(c(-c3ccc(Cl)c(C#Cc4ccc(-c5nc6ccccc6[nH]5)cc4)c3)nn2CCCN2CCOCC2)C1` [Example 320, 3-(3-{[4-(1H-Benzimidazol-2-yl)phenyl]ethynyl}-4-chlorophenyl)-5-(methylsulfonyl)-1-(3-morpholin-4-ylpropyl)-4,5,6,7-tetrahydro-1H-pyrazolo[4,3-c]pyridine], the IC50 is 90 nM.

As to `CS(=O)(=O)N1CCc2c(c(-c3ccc(Cl)c(C#Cc4ccc(NCc5ccccc5)cc4)c3)nn2CCCN2CCOCC2)C1` [Example 321, 4-({2-Chloro-5-[5-(methylsulfonyl)-1-(3-morpholin-4-ylpropyl)-4,5,6,7-tetrahydro-1H-pyrazolo[4,3-c]pyridin-3-yl]phenyl}ethynyl)-N-(phenylmethyl)aniline], the half-maximal inhibitory concentration (IC50) stood at 4650 nM.

In the case of `CS(=O)(=O)N1CCc2c(c(-c3ccc(Cl)c(C#Cc4ccc(NCC#N)cc4)c3)nn2CCCN2CCOCC2)C1` [Example 322, {[4-({2-Chloro-5-[5-(methylsulfonyl)-1-(3-morpholin-4-ylpropyl)-4,5,6,7-tetrahydro-1H-pyrazolo[4,3-c]pyridin-3-yl]phenyl}ethynyl)phenyl]amino}acetonitrile], the IC50 was found to be 730 nM.

As for `CS(=O)(=O)N1CCc2c(c(-c3ccc(Cl)c(C#Cc4ccc(CNC5CC5)cc4)c3)nn2CCCN2CCOCC2)C1` [Example 323, N-{[4-({2-Chloro-5-[5-(methylsulfonyl)-1-(3-morpholin-4-ylpropyl)-4,5,6,7-tetrahydro-1H-pyrazolo[4,3-c]pyridin-3-yl]phenyl}ethynyl)phenyl]methyl}cyclopropanamine], the half-inhibitory concentration (IC50) is 750 nM.

With `CS(=O)(=O)N1CCc2c(c(-c3ccc(Cl)c(C#Cc4ccc(CNC5CCC5)cc4)c3)nn2CCCN2CCOCC2)C1` [Example 324, N-{[4-({2-Chloro-5-[5-(methylsulfonyl)-1-(3-morpholin-4-ylpropyl)-4,5,6,7-tetrahydro-1H-pyrazolo[4,3-c]pyridin-3-yl]phenyl}ethynyl)phenyl]methyl}cyclobutanamine], the IC50 stood at 1340 nM.

As to `CS(=O)(=O)N1CCc2c(c(-c3ccc(Cl)c(C#Cc4ccc(CNC5CCCC5)cc4)c3)nn2CCCN2CCOCC2)C1` [Example 325, N-{[4-({2-Chloro-5-[5-(methylsulfonyl)-1-(3-morpholin-4-ylpropyl)-4,5,6,7-tetrahydro-1H-pyrazolo[4,3-c]pyridin-3-yl]phenyl}ethynyl)phenyl]methyl}cyclopentanamine], the IC50 came out at 1450 nM.

As for `CS(=O)(=O)N1CCc2c(c(-c3ccc(Cl)c(C#Cc4ccc(CNC5CCCCC5)cc4)c3)nn2CCCN2CCOCC2)C1` [Example 326, N-{[4-({2-Chloro-5-[5-(methylsulfonyl)-1-(3-morpholin-4-ylpropyl)-4,5,6,7-tetrahydro-1H-pyrazolo[4,3-c]pyridin-3-yl]phenyl}ethynyl)phenyl]methyl}cyclohexanamine], the 50% inhibitory concentration (IC50) worked out at 1370 nM.

Consider `CS(=O)(=O)N1CCc2c(c(-c3ccc(Cl)c(C#Cc4ccc(NCCc5ccccc5)cc4)c3)nn2CCCN2CCOCC2)C1` [Example 327, 4-({2-Chloro-5-[5-(methylsulfonyl)-1-(3-morpholin-4-ylpropyl)-4,5,6,7-tetrahydro-1H-pyrazolo[4,3-c]pyridin-3-yl]phenyl}ethynyl)-N-(2-phenylethyl)aniline], for which the IC50 worked out at 760 nM.

For the compound `CS(=O)(=O)N1CCc2c(c(-c3ccc(Cl)c(C#Cc4ccc(CNCc5ccc(Cl)cc5)cc4)c3)nn2CCCN2CCC(N3CCCC3=O)CC2)C1` [Example 328, 1-(1-{3-[3-(4-Chloro-3-{[4-({[(4-chlorophenyl)methyl]amino}methyl)phenyl]ethynyl}phenyl)-5-(methylsulfonyl)-4,5,6,7-tetrahydro-1H-pyrazolo[4,3-c]pyridin-1-yl]propyl}piperidin-4-yl)pyrrolidin-2-one], the IC50 was found to be 20 nM.

In the case of `CC(C)(C)OC(=O)NC1CCN(CCCn2nc(-c3ccc(Cl)c(C#Cc4ccc(CNCc5ccc(Cl)cc5)cc4)c3)c3c2CCN(S(C)(=O)=O)C3)CC1` [Example 329, 1,1-Dimethylethyl (1-{3-[3-(4-chloro-3-{[4-({[(4-chlorophenyl)methyl]amino}methyl)phenyl]ethynyl}phenyl)-5-(methylsulfonyl)-4,5,6,7-tetrahydro-1H-pyrazolo[4,3-c]pyridin-1-yl]propyl}piperidin-4-yl)carbamate], the IC50 was found to be 30 nM.

As for `CS(=O)(=O)N1CCc2c(c(-c3ccc(Cl)c(C#Cc4ccc(CNCc5ccc(Cl)cc5)cc4)c3)nn2CCCN2CCC(O)CC2)C1` [Example 330, 1-{3-[3-(4-Chloro-3-{[4-({[(4-chlorophenyl)methyl]amino}methyl)phenyl]ethynyl}phenyl)-5-(methylsulfonyl)-4,5,6,7-tetrahydro-1H-pyrazolo[4,3-c]pyridin-1-yl]propyl}piperidin-4-ol], the 50% inhibitory concentration (IC50) was found to be 90 nM.

With `CS(=O)(=O)N1CCc2c(c(-c3ccc(Cl)c(C#Cc4ccc(CNCc5ccc(Cl)cc5)cc4)c3)nn2CCCN2CCC(N)CC2)C1` [Example 331, 1-{3-[3-(4-Chloro-3-{[4-({[(4-chlorophenyl)methyl]amino}methyl)phenyl]ethynyl}phenyl)-5-(methylsulfonyl)-4,5,6,7-tetrahydro-1H-pyrazolo[4,3-c]pyridin-1-yl]propyl}piperidin-4-amine], the IC50 was found to be 170 nM.

For `CS(=O)(=O)N1CCc2c(c(-c3ccc(Cl)c(C#Cc4ccc(CNCc5ccc(Cl)cc5)cc4)c3)nn2CCCN2CCCC2)C1` [Example 333, 1-[4-({2-Chloro-5-[5-(methylsulfonyl)-1-(3-pyrrolidin-1-ylpropyl)-4,5,6,7-tetrahydro-1H-pyrazolo[4,3-c]pyridin-3-yl]phenyl}ethynyl)phenyl]-N-[(4-chlorophenyl)methyl]methanamine], the IC50 came to 180 nM.
